Results: patent US20240002351A1, “QUINAZOLIN-4-ONE AND THIENO[2,3-D]PYRIMIDIN-4-ONE INHIBITORS OF ERBB4 (HER4) FOR USE IN THE TREATMENT OF CANCER” (UNIVERSITEIT ANTWERPEN, priority 2021, published 2024)

Key:
ERBB4 [1] = molecular target: T1, ERBB4 (Homo sapiens, UniProt Q15303); test: PathHunter ERBB4/ERBB4 dimerization assay, dose-response curves; type: cell-based; conditions: U2OS ERBB4/ERBB4 dimerization cell line, 6 hours, compound alone; for Emax: NRG-1 = 100
T1 construct: host or cells: U2OS
T1 sequence (Q15303 26-1308): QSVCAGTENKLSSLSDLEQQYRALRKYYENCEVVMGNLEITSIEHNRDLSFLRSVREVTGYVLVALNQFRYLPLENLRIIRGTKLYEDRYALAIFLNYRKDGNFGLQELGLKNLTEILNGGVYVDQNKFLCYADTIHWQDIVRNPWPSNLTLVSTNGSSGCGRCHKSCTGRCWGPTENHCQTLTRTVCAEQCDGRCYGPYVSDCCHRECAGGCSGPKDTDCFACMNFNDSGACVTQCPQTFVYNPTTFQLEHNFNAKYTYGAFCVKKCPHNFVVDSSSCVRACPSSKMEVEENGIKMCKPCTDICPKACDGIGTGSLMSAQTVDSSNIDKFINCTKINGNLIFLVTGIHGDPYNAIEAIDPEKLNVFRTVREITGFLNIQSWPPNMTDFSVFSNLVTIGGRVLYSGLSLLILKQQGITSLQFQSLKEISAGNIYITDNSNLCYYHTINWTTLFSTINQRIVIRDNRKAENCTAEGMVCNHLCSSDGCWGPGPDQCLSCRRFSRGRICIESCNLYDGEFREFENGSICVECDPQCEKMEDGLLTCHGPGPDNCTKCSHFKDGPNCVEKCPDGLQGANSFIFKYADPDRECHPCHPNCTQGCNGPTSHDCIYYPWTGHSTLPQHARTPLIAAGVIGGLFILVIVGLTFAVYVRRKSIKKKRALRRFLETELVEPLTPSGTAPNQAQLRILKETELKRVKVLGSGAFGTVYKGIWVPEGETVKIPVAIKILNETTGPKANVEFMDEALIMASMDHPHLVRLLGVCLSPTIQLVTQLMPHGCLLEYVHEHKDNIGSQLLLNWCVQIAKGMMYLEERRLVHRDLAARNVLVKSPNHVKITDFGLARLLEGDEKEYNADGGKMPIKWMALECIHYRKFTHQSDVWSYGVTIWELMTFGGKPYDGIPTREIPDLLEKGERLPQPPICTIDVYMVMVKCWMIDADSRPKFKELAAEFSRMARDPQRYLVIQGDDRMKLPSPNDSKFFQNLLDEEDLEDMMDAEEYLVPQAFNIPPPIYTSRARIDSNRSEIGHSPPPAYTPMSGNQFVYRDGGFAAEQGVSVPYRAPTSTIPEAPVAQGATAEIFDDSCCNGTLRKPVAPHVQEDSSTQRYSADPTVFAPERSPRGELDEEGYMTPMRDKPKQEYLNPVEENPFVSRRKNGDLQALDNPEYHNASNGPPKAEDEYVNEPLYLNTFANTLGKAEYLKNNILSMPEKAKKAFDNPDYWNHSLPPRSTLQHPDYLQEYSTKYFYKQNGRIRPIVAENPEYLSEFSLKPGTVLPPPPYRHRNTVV
Procedure: (§1) Following 1-12 passages, U2OS ERBB4/ERBB4 dimerization cell line (Eurofins, 93-0961C3) were seeded at 10,000 cells/well in 100 μL cell plating reagent (Eurofins, 93-0563R0A) in white walled 96-well plates (PerkinElmer, 6005680) and incubated for 24h at 37° C. in humidified atmosphere of 5% CO2 in air. Cells were treated with 10 μL of compound (prepared at 11×, Enamine), 10 μM Heregulin-β1 (NRG-1) (DiscoverX, 92-1031 or Peprotech, 100-03) or PBS. […] Cells were subsequently incubated for 6 hours at 37° C., 5% CO2. Then 110 μL PathHunter Flash Detection Reagents (93-0247) were added to each well and cells were incubated at room temperature for 1 hour (covered from light). Afterwards luminescence signal was measured using the Luminoskan Ascent (Thermofisher). Dose response curves of the compounds were performed in 2-fold (0,0625 μM-32 μM).
From these curves, the EC50 and the Emax of the compounds was calculated.

ERBB4 [2] = molecular target: T1, ERBB4; test: PathHunter ERBB4/ERBB4 dimerization assay, compounds on top of 0.1 μM NRG-1 (identification of modulators); type: cell-based; conditions: for Emax: on top of 0.1 μM NRG1, relative to NRG1 (set as 100%); for behaviour from the shape of the dose-response curves: on top of 0.1 μM neuregulin-1 (FIG. 1); for EC50: on top of 0.1 μM NRG1
Procedure: as §1
Cells were treated with compound (prepared at 22×, 10 min pre-incubation) together with NRG-1 (0.1 μM final concentration, Peprotech, 100-03), or NRG-1 (0.1 μM final concentration) or PBS.
The EC50 and the Emax of the compounds on top of 0.1 μM NRG1 is depicted in Table 3 relative to NRG1 (set as 100%).

[3] = Solubility in PBS (absorbance); type: physicochemical; conditions: aqueous buffer, kinetic from dmso stock, 37° C., 2 hours (FIG. 10), read-out: solubility: concentration at which easily soluble
Procedure: A dilution series (0.16, 0.31, 0.62, 1.25, 2.5 and 5 mM) was made starting with a compound stock solution of 10 mM in DMSO. Aliquot of 4 μL was taken out of every dilution and added to 196 μL PBS in a 96-well plate. The plate was shaken for 10 seconds, incubated at 37° C. for 2 hours and thereafter absorbance was measured. Samples were analyzed in duplicate.

Chemical stability = type: physicochemical; conditions: 37° C. and pH 7.4 for 24 hours (FIG. 11)
Procedure: A 10 μL aliquot of compound solution (10 mM in DMSO) was added to 990 μL DMSO (100 μM) and further diluted with […] to a stock solution of 500 nM. The mixture was incubated at 37° C. Aliquots of 100 μL were taken at various time points (0, 0.5, 1, 2, 3, 6 and 24 hrs) and analyzed with LC-MS/MS (Waters Acquity H-class UPLC system with ion trap mass spectrometer, Bruker Daltonics Esquire 3000 plus, and Agilent 1100 Series LC system). Samples were analyzed in triplicate and plotted against a standard curve; compound at 31-500 nM in buffer solution of pH 7.4 (10 mM Potassium Phosphate, BD Gentest).

[4] = Plasma stability, human plasma; type: in vitro ADME; conditions: 50 μM, 37° C., over 6 hours (FIG. 12)
Procedure: (§2) A 5 μL aliquot of compound solution (10 mM in DMSO) was added to 995 μL of Non Swiss Albino Mouse Plasma (DivBioScience, Breda, Netherlands) or Pooled Normal Human plasma in sodium citrate to obtain a final concentration of 50 μM compound in plasma. The mixture was gently shaken for 6 hours at 37° C. Aliquots of 100 μL were taken at various time points (0, 0.5, 1, 2 and 6 hrs.) and diluted with 400 μL of cold acetonitrile (Sigma-Aldrich, stored at 4° C.). The suspension was centrifuged at 14000 rpm for 5 min. Thereafter, 50 μL of the supernatant was diluted with 950 μL of acetonitrile and analyzed with LC-MS/MS (Waters Acquity H-class UPLC system with ion trap mass spectrometer, Bruker Daltonics Esquire 3000 plus, and Agilent 1100 Series LC system). Samples were analyzed in triplicate and plotted against a standard curve (compound at 3.12-100 μM in plasma and diluted in acetonitrile as described above).

[5] = Plasma stability, mouse plasma; type: in vitro ADME; conditions: 50 μM, 37° C., over 6 hours (FIG. 12)
Procedure: as §2

[6] = Metabolic stability, mouse liver microsomes; type: in vitro ADME; conditions: for t1/2 mouse: mouse liver microsomes; for half-life at 10 µM: mouse, liver microsomes, pH 7.4, mouse liver microsomes, read-out: t1/2 mouse
Procedure: A mixture of 713 μL milliQ water (Millipore, MA, USA), 200 μL 0.5 M phosphate buffer (pH 7.4, BD Diagnostic Systems, MD, USA), 50 μL NADPH regenerating system solution A (BD Biosciences, CA, USA), 10 μL NADPH regenerating system solution B (BD Biosciences, CA, USA) and 2 μL compound (5 mM in DMSO) was prepared and heated for 5 min at 37° C. Twenty-five μL of liver microsomes (0.5 mg protein/mL, Corning B.V. Life Sciences, Amsterdam, Netherlands) was added to the mixture and 20 μL samples were withdrawn at 0, 0.25, 0.5 and 1, 2, 4, 6 and 24 hours. Eighty μL (4×20 μL) of cold acetonitrile (Sigma-Aldrich, MO, USA) was added to the samples on ice for 10 min. Afterwards, the mixtures were centrifuged at 13,000 rpm for 5 min at 4° C. Seventy-five μL of an acetonitrile/water (10/90) mixture was added to 25 μL supernatant and the obtained samples were analyzed by LC-MS/MS (Waters Acquity H-class UPLC system with ion trap mass spectrometer, Bruker Daltonics Esquire 3000 plus, and Agilent 1100 Series LC system) in triplicate.

Row | SMILES | EC50 (ERBB4 [1]) [µM] | Emax (ERBB4 [1]) [%] | Emax (ERBB4 [2]) [%] | behaviour from the shape of the dose-response curves (ERBB4 [2]) | solubility at 2 h [3] [µM] | chemical stability (Chemical stability) | plasma stability, human plasma [4] | plasma stability, mouse plasma [5] | t1/2 mouse [6] [min] | half-life at 10 µM [6] [min] | EC50 (ERBB4 [2]) [µM]
1 | CC(Sc1nc2ccccc2c(=O)n1C1CCCC1)c1nc2ccccc2n1C(F)F (centres unmarked) [Compound 7] | 10.4 | 9.76 ± 2.46 | 139 ± 19 | weak or silent allosteric modulators | < 25 | chemically stable | stable | stable | 14 | 14 to 15 | 
2 | Cc1sc2nc(SC(C)C(=O)Nc3sccc3C(N)=O)n(CC(C)C)c(=O)c2c1C (centres unmarked) [Compound 6] | 6.47 | 10.3 ± 3.01 | 112 ± 14 | weak or silent allosteric modulators | < 25 | chemically stable | stable | stable | 8 | 8 to 12 | ~13.9
3 | O=C(NC1CC1)C(Sc1nc2ccccc2c(=O)n1C1CCCC1)c1ccccc1 (centres unmarked) [Compound 1] | 8.92 | 33.1 ± 4.21 | 256 ± 126 | ago-allosteric modulators | < 25 | chemically stable | stable | stable | 15 | 14 to 15 | ~1.6
